Measurements reported in PubChem BioAssay AID504765 (Sanford-Burnham Center for Chemical Genomics, 2011).
Activity calls are given as the source filed them. No rule for the calls is given here.

Molecular target: glucose-6-phosphate dehydrogenase-6-phosphogluconolactonase (Plasmodium falciparum 3D7)
Test: PfG6PD inhibitor potency, dose response, biochemical, fluorescence intensity (AID 504765)
Conditions: Recombinant PfG6PD enzyme, fluorescence intensity (NADPH)

Question: Cc1ccc(-c2csc(NC(=O)c3ccccc3F)c2C(=O)O)cc1 was tested. Which IC50 did it give?
Answer: 8.06 µM

Question: With CC1=CC(C)(C)Nc2ccc(OC(=O)CN3C(=O)CCC3=O)cc21 as the compound, how does the IC50 read?
Answer: 12 µM

Question: How did the IC50 turn out when O=C(Nc1nnc(S(=O)(=O)N2CCOCC2)s1)c1ccc(F)cc1 was run?
Answer: 11.4 µM

Question: How did the IC50 turn out when O=c1c2cc(C(F)(F)F)ccc2sn1-c1ccccc1 was run?
Answer: 3.89 µM

Question: Which IC50 does the source give for Cc1ccc(/C=C/C(=O)NCCc2cccc(Cl)c2)o1 here?
Answer: 7.59 µM

Question: With O=C1/C(=C\c2ccc([N+](=O)[O-])cc2)CS(=O)(=O)C/C1=C/c1ccc([N+](=O)[O-])cc1 as the compound, how does the IC50 read?
Answer: 2.95 µM

Question: For O=[N+]([O-])c1ccc2c(c1)-c1ccccc1C2O (stereo not given), which IC50 is on record?
Answer: 2.46 µM

Question: Which IC50 does the source give for Cc1ccc(NNS(=O)(=O)c2ccc(C)cc2)cc1 here?
Answer: 12.6 µM

Question: COc1cc(-c2cc(OC)c(O)c(OC)c2)cc(OC)c1O was tested. Which IC50 did it give?
Answer: 8.29 µM

Question: Which IC50 does the source give for Oc1ccc(C23CC4CC(CC(C4)C2)C3)cc1O here?
Answer: inactive

Question: Cn1c(-c2sccc2OCc2cccc(C(F)(F)F)c2)n[nH]c1=S was tested. Which IC50 did it give?
Answer: inactive

Question: How did the IC50 turn out when CCn1c(SCc2nc3scc(-c4ccccc4)c3c(=O)[nH]2)nnc1-c1cccs1 was run?
Answer: 17.3 µM

Question: For COc1cc(N)c2ncccc2c1SC, which IC50 is on record?
Answer: inactive

Question: For O=S(=O)(Nc1cccc2cccnc12)c1ccccc1, which IC50 is on record?
Answer: 7.08 µM

Question: O=c1c2ccccc2sn1-c1cccc(Cl)c1 was tested. Which IC50 did it give?
Answer: 4.18 µM

Question: For COc1ccc(N2CSC3=C(C#N)C(c4cc(OC)c(OC)cc4OC)CC(=O)N3C2)c(OC)c1 (stereo not given), which IC50 is on record?
Answer: 3.13 µM

Question: For Cc1cc(C)c(NC(=S)NCC2CCN(C(C)c3ccccc3)C2)c(C)c1 (stereo not given), which IC50 is on record?
Answer: 14.8 µM

Question: How did the IC50 turn out when COC1(OC)C=CC(=O)C=C1NC(=O)c1ccccc1OC(C)=O was run?
Answer: 9.27 µM

Question: Which IC50 does the source give for Cc1ccnc(-n2sc3ccccc3c2=O)n1 here?
Answer: 11.7 µM

Question: Which IC50 does the source give for Cc1cccc(C(=O)Nc2sc3c(c2C(=O)O)CCCC3)c1 here?
Answer: 8.55 µM

Question: Which IC50 does the source give for Cc1ccc(NC(=O)Cn2sc3ccccc3c2=O)cc1 here?
Answer: 4.24 µM

Question: With CCN(CC)c1nc(N)nc(NS(=O)(=O)c2ccc(Cl)cc2)n1 as the compound, how does the IC50 read?
Answer: 6.15 µM

Question: Which IC50 does the source give for Cc1ccc(-n2sc3cc(F)ccc3c2=O)c(C)c1 here?
Answer: 1.43 µM

Question: CCOc1cc(CNc2ccc(N3CCCC3)cc2)cc(Cl)c1OC was tested. Which IC50 did it give?
Answer: 3.87 µM

Question: How did the IC50 turn out when CN=c1scc(C)n1/N=C/c1ccc(O)c(O)c1O was run?
Answer: 3.98 µM

Question: How did the IC50 turn out when O=C(Cn1sc2ccccc2c1=O)Nc1ccc(F)cc1 was run?
Answer: 2.56 µM

Question: O=C(Nc1nnc(S(=O)(=O)N2CCCC2)s1)c1cccc([N+](=O)[O-])c1 was tested. Which IC50 did it give?
Answer: 4.17 µM

Question: With Cc1ccc(C(=O)/C=C/C(=O)c2ccc(C)cc2)cc1 as the compound, how does the IC50 read?
Answer: 7.28 µM

Question: For O=c1c2ccccc2sn1-c1ccc(S(=O)(=O)N2CCCC2)cc1, which IC50 is on record?
Answer: 6.88 µM

Question: With CCOC(=O)c1c(C2COc3ccccc3O2)csc1NC(=O)c1ccco1 (stereo not given) as the compound, how does the IC50 read?
Answer: 14.2 µM

Question: Which IC50 does the source give for Cc1nc2ccccn2c1-c1ccnn1S(=O)(=O)c1ccc(F)cc1 here?
Answer: 15.2 µM

Question: How did the IC50 turn out when CCN1CCN(C(=S)c2ccc(Cl)c(Cl)c2)CC1 was run?
Answer: inactive

Question: Which IC50 does the source give for CCCCOc1ccc(Cc2n[nH]c(=S)n2N)cc1 here?
Answer: inactive

Question: With COc1cc(/C=C2\SC(c3ccc(C)cc3)=NC2=O)ccc1O as the compound, how does the IC50 read?
Answer: 8.7 µM

Question: With COc1cc(O)c(C(=O)O)c(-c2cc(O)c(O)cc2C)c1 as the compound, how does the IC50 read?
Answer: 3.75 µM

Question: How did the IC50 turn out when CC(=O)Nc1ccc2c(c1)Cc1cc(N3C(=O)C=CC3=O)ccc1-2 was run?
Answer: 19.3 µM

Question: Which IC50 does the source give for Cc1ccsc1/C=N\NC(=O)CC(=O)NCc1ccccc1 here?
Answer: 6.41 µM

Question: With NS(=O)(=O)c1ccc(-c2ccc(C=C3C(=O)NC(=O)NC3=O)o2)cc1 as the compound, how does the IC50 read?
Answer: 3.14 µM

Question: Which IC50 does the source give for N#CC(C#N)=C1C=CC=CN1/C(=C\c1ccccc1Cl)C(=O)c1ccccc1 here?
Answer: 8.31 µM

Question: Which IC50 does the source give for [O-][N+](=Cc1ccccc1)c1ccc(Cl)cc1 here?
Answer: 3.34 µM

Question: With CCn1c(N)c(C(=O)NC)sc1=S as the compound, how does the IC50 read?
Answer: inactive

Question: For Cc1ccc(S(=O)(=O)Nc2nc(C)c(C(=O)N/N=C/c3ccccc3)s2)cc1, which IC50 is on record?
Answer: 4.58 µM

Question: With COc1ccc(CN(C)S(=O)(=O)c2nnc(NC(=O)c3ccc(C)cc3)s2)cc1OC as the compound, how does the IC50 read?
Answer: 7.6 µM

Question: O=C1C=CC2=C3c4cc(O)c(O)cc4CC3(O)COC2=C1O (stereo not given) was tested. Which IC50 did it give?
Answer: 6.49 µM

Question: Which IC50 does the source give for CN(C)c1ccc(/C=C/c2ccc3c4ccccc4ccc3[n+]2-c2ccccc2)cc1 here?
Answer: inactive

Question: CC(=NNC(=S)N1CCN(c2ccccn2)CC1)c1nccs1 was tested. Which IC50 did it give?
Answer: 5.6 µM

Question: For Cc1[nH]c(=S)c(C#N)c(C)c1CCC#N, which IC50 is on record?
Answer: inactive

Question: With O=[N+]([O-])c1ccc(-[n+]2ccc3ccccc3c2)c([N+](=O)[O-])c1 as the compound, how does the IC50 read?
Answer: 8.26 µM

Question: O=C(NC1=CC(=O)c2ccccc2C1=O)c1ccccc1 was tested. Which IC50 did it give?
Answer: 2.53 µM

Question: O=S(=O)(Nc1cc(Sc2ncn[nH]2)c(O)c2ccccc12)c1ccccc1 was tested. Which IC50 did it give?
Answer: 0.741 µM

Question: C=CCN1CCc2cccc3c2[C@H]1Cc1ccc(O)c(O)c1-3 was tested. Which IC50 did it give?
Answer: 19.6 µM

Question: Cc1ccc(S(=O)(=O)/N=C2/C=C(C3C(=O)CC(C)(C)CC3=O)C(=O)c3ccccc32)cc1 was tested. Which IC50 did it give?
Answer: 14.1 µM

Question: CC(=O)Nc1cc([N+](=O)[O-])ccc1OCc1ccccc1 was tested. Which IC50 did it give?
Answer: 19.8 µM

Question: Which IC50 does the source give for O=c1[nH]c2ccccc2n2c(-c3ccccc3)nnc12 here?
Answer: 1.65 µM

Question: CC(SCC(=O)Nc1ccccc1)c1nc2ccccc2c(=O)[nH]1 (stereo not given) was tested. Which IC50 did it give?
Answer: 5.29 µM

Question: For CCC(C)c1ccccc1OCCn1ccnc1 (stereo not given), which IC50 is on record?
Answer: 3.39 µM

Question: c1cncc(CNc2ccc3c(c2)OCO3)c1 was tested. Which IC50 did it give?
Answer: 13.9 µM

Question: CN1CCc2cccc3c2[C@@H]1Cc1ccc(O)c(O)c1-3 was tested. Which IC50 did it give?
Answer: 8.36 µM

Question: Cc1cc(C)c(S(=O)(=O)/N=C2/C=C(SCC(=O)O)C(=O)c3ccccc32)cc1C was tested. Which IC50 did it give?
Answer: 2.41 µM

Question: With CCOc1ccccc1C=NNC(=O)CCCCC(=O)NN=Cc1ccccc1OCC as the compound, how does the IC50 read?
Answer: 7.77 µM

Question: How did the IC50 turn out when COc1ccc(NC(=S)N(CCC(C)C)C2CCN(C(C)C)CC2)cc1Cl was run?
Answer: 14.3 µM

Question: CC(=O)Nc1ccc(S(=O)(=O)NNc2cccc(C)c2)cc1 was tested. Which IC50 did it give?
Answer: inactive

Question: Which IC50 does the source give for O=C(NCCCN1CCOCC1)c1sc2cc([N+](=O)[O-])ccc2c1Cl here?
Answer: 6.75 µM

Question: Which IC50 does the source give for COc1cc(OC)c(C2CC(=O)N3CN(c4ccccc4)CSC3=C2C#N)cc1OC (stereo not given) here?
Answer: 11.5 µM

Question: How did the IC50 turn out when COc1ccc(CCn2c(NN=C3CCCCC3)nc3c2c(=O)[nH]c(=O)n3C)cc1 was run?
Answer: 1.65 µM

Question: NCCc1cc(O)c(O)cc1O was tested. Which IC50 did it give?
Answer: 3.51 µM

Question: With COc1cccc(-c2c(C(=O)N/N=C/c3ccc(C)o3)nnn2-c2nonc2N)c1 as the compound, how does the IC50 read?
Answer: 13.2 µM

Question: How did the IC50 turn out when COc1ccc(Nc2cc(C)c3c(O)cccc3n2)cc1 was run?
Answer: 5.06 µM

Question: CCc1nnc(NC(=O)c2ccc(Cl)nc2)s1 was tested. Which IC50 did it give?
Answer: 15.5 µM

Question: With N#Cc1c(C#N)c(SSc2c(C#N)c(C#N)c(N)n2-c2ccccc2)n(-c2ccccc2)c1N as the compound, how does the IC50 read?
Answer: 1.41 µM

Question: With O=C(N/N=C/c1cccc([N+](=O)[O-])c1)C(=O)N1CCCCCC1 as the compound, how does the IC50 read?
Answer: 5.45 µM

Question: Which IC50 does the source give for NC1CCc2cc(O)c(O)cc2C1 (stereo not given) here?
Answer: inactive

Question: For CC(C)(C)NC(=O)COc1ccc(CNc2ccc3[nH]c(=O)[nH]c3c2)cc1, which IC50 is on record?
Answer: 11.7 µM

Question: With COc1ccc(C2(CNC(=O)c3ccc(OC)c([N+](=O)[O-])c3)CCCCC2)cc1OC as the compound, how does the IC50 read?
Answer: 8.33 µM

Question: [O-]/[N+](=C\c1ccncc1)c1ccccc1 was tested. Which IC50 did it give?
Answer: 9.54 µM

Question: Which IC50 does the source give for CCOC(=O)c1ccc(-n2c(N)c(C(=O)NCC3CCCO3)sc2=S)cc1 (stereo not given) here?
Answer: inactive

Question: For COc1cc(N=Cc2c(CO)cnc(C)c2O)cc(OC)c1OC, which IC50 is on record?
Answer: 19.6 µM

Question: Which IC50 does the source give for O=C(Sc1n[nH]c(=O)[nH]c1=O)c1ccccc1 here?
Answer: 3.33 µM

Question: O=c1c2cc(F)ccc2sn1-c1ccccc1Cl was tested. Which IC50 did it give?
Answer: 4.29 µM

Question: How did the IC50 turn out when Cc1ccc(-c2nn(C)c(=O)c3ccccc23)cc1CNC(=O)/C=C/c1ccccc1 was run?
Answer: 4.14 µM

Question: For CCNc1ccccc1CP(=O)(c1ccccc1)c1ccccc1O (stereo not given), which IC50 is on record?
Answer: 6.81 µM

Question: Cc1ccc(/C=C/C(=O)N2CCN(S(=O)(=O)c3ccc(C)c(C)c3)CC2)o1 was tested. Which IC50 did it give?
Answer: inactive

Question: Which IC50 does the source give for O=C(COC(=O)c1ccc2c(c1[N+](=O)[O-])C(=O)c1ccccc1C2=O)NC1CC1 here?
Answer: 16.4 µM

Question: With O=[N+]([O-])c1cnc(Sc2ccncn2)c([N+](=O)[O-])c1 as the compound, how does the IC50 read?
Answer: 9.62 µM

Question: Which IC50 does the source give for CCN(CC)CCn1c2ccccc2c(=O)c2c(O)ccc(O)c21 here?
Answer: 2.39 µM
